In ChEMBL document CHEMBL1136359, “11,12-epoxyeicosatrienoic acid (11,12-EET): structural determinants for inhibition of TNF-alpha-induced VCAM-1 expression” (Bioorg Med Chem Lett, 2003) one finds Inhibition and IC50 data, which are given here for 32 compounds.

The test system of assay [1] is HSVEC. Briefly: (§1) Inhibitory activity against tumor necrosis factor-alpha (TNF-alpha) induced vascular cell adhesion molecule-1 (VCAM-1) in human endothelial cells. It is filed as functional.
Assay [2] concerns HSVEC. Described as §1. Format: functional, cell-based.

What is called Inhibition is the change of the read-out against control, counted positive when it falls. One may read the IC50 as the point on the concentration scale where inhibition reaches its midpoint. Higher therefore signals a need for much substance.

For `CCCCC/C=C\C[C@H]1O[C@H]1C/C=C\C/C=C\CCCC(=O)O`, in the assay with HSVEC [1], the Inhibition was determined as 31%.

`CCCCCCCCC1OC1C/C=C\CCCCOCC(=O)O` (centres undefined): the Inhibition in the assay on HSVEC [1] was 3%.

As for `CCCCCCCCC1OC1CC#CCCCCCCC(=O)O` (centres undefined), the Inhibition in the assay with HSVEC [1] was 28%. On the same count and under the same terms, the same measure for `O=C(O)CCCCCC/C=C\CCOCCCCCCCCCOc1ccc(I)cc1`: 52%. Regarding `CCCCC/C=C\CC1OC1C/C=C\C/C=C\CCCC(=O)O` (centres undefined), the Inhibition in the assay with HSVEC [1] amounted to 39%.

In the case of `CCCCCCCCc1cocc1C/C=C\CCCCCCC(=O)O`, in the assay with HSVEC [1], the Inhibition is 50%. For `CCCCCCCCCOCC/C=C\CCCCCCC(=O)NS(C)(=O)=O`, the Inhibition in the assay on HSVEC [1] amounted to 1%. As to `CCCCCCCC[C@@H]1O[C@@H]1C/C=C\CCCCC(=O)O`, in the assay on HSVEC [1], the Inhibition turned out to be 17%. Consider `O=C(O)CCCCCC/C=C\CC1OC1CCCCCCCCO` (centres undefined), for which the Inhibition in the assay with HSVEC [1] came to 36%. Regarding `O=C(O)CCCCCC/C=C\CCOCCCCCCCCCO`, the Inhibition in the assay on HSVEC [1] amounted to 27%. For `CCCCCCCCCOCC/C=C\CCCCCCC(=O)O`, in the assay with HSVEC [1], the Inhibition was found to be 48%. In addition, in the assay with HSVEC [2], the IC50 worked out at 45 nM.

Regarding `CCCCCCCCC1OC1CCCCCCCCCC(=O)O` (centres undefined), in the assay with HSVEC [1], the Inhibition is reported as 36%. On the same count and under the same terms, with `CCCCC/C=C\CC1SC1C/C=C\C/C=C\CCCC(=O)O` (centres undefined) the figure was 65%.

Turning to `CCCCCCCCC1OC1C/C=C\CCCCCCC(=O)NS(=O)(=O)c1ccccc1` (centres undefined), the Inhibition in the assay on HSVEC [1] stood at 33%.

Take `CCCCC/C=C\CC1OC1CCCCCCCCCC(=O)O` (centres undefined): in the assay on HSVEC [1], the Inhibition is 13%.

Regarding `CCCCC/C=C\C[C@@H]1O[C@@H]1C/C=C\C/C=C\CCCC(=O)O`, the Inhibition with HSVEC [1] is on record as 35%. Still for that read-out and setting: with `CCCCC/C=C\CC1OC1C/C=C\CCCCCCC(=O)O` (centres undefined) the figure was 10%; with `CCCCCCCCC1OC1C/C=C\CCCCCCCO` (centres undefined), 32%; with `CCCCCCCC[C@H]1O[C@H]1C/C=C\CCCCC(=O)O`, 13%. For the compound `CCCCCCCCC1OC1CCCC/C=C\CCCC(=O)O` (centres undefined), the Inhibition in the assay with HSVEC [1] was 31%. Regarding `CC(=O)NCCCCCCCCCOCC/C=C\CCCCCCC(=O)O`, the Inhibition in the assay on HSVEC [1] was determined as 63%.

Turning to `CCCCCCCCC1CC1C/C=C\CCCCCCC(=O)O` (centres undefined), the Inhibition in the assay on HSVEC [1] is given as 31%. With `CCCCC/C=C\CC1OC1CCCC/C=C\CCCC(=O)O` (centres undefined), in the assay on HSVEC [1], the Inhibition is 30%.

For the compound `CCCCCCCCC1OC1CC/C=C\CCCCCC(=O)O` (centres undefined), the Inhibition in the assay with HSVEC [1] was determined as 13%.

In the case of `CCCCCCCCCCC1OC1C/C=C\CCCCCCC(=O)O` (centres undefined), the Inhibition in the assay on HSVEC [1] is reported as -1%. As to `CCCCCCCCC1OC1C/C=C\CCCCCCC(=O)O` (stereo in doubt; 9), in the assay with HSVEC [1], the Inhibition turned out to be 69%. In the assay on HSVEC [2], this compound showed an IC50 of 60 nM. On to `CCCCCCCCC1OC1C/C=C\CCCCCCC(=O)O` (stereo in doubt; 11), for which the Inhibition in the assay on HSVEC [1] was found to be 58%. Same read-out and setting: with `CCCCCCCCC1SC1C/C=C\CCCCCCC(=O)O` (stereo in doubt; 15) the figure was 49%.

`CCCCCCCCC1SC1C/C=C\CCCCCCC(=O)O` (stereo in doubt; 16): the Inhibition in the assay with HSVEC [1] stood at 26%. Still for that read-out and setting: with `CCCCCCCCC1OC1C/C=C\CCCCCCC(=O)O` (stereo in doubt; 21) the figure was 1%.

As for `CCCCCCCCC1OC1C/C=C\CCCCCCC(=O)NS(C)(=O)=O` (stereo in doubt; 29), the Inhibition in the assay with HSVEC [1] worked out at 29%. Same read-out and setting: the same measure for `CCCCCCCCC1OC1C/C=C\CCCCCCC(=O)NS(C)(=O)=O` (stereo in doubt; 30): 31%.
